The structures appear in SMILES notation. pIC50: −log10 of the molar value.

The target of the assay is T1, recombinant human liver glycogen phosphorylase (HLGPa) (Homo sapiens, UniProt P06737).
T1 construct: made in house; host or cells: Sf9 insect cells (unpurified cell lysate used as enzyme solution)
T1 sequence (P06737 1-847): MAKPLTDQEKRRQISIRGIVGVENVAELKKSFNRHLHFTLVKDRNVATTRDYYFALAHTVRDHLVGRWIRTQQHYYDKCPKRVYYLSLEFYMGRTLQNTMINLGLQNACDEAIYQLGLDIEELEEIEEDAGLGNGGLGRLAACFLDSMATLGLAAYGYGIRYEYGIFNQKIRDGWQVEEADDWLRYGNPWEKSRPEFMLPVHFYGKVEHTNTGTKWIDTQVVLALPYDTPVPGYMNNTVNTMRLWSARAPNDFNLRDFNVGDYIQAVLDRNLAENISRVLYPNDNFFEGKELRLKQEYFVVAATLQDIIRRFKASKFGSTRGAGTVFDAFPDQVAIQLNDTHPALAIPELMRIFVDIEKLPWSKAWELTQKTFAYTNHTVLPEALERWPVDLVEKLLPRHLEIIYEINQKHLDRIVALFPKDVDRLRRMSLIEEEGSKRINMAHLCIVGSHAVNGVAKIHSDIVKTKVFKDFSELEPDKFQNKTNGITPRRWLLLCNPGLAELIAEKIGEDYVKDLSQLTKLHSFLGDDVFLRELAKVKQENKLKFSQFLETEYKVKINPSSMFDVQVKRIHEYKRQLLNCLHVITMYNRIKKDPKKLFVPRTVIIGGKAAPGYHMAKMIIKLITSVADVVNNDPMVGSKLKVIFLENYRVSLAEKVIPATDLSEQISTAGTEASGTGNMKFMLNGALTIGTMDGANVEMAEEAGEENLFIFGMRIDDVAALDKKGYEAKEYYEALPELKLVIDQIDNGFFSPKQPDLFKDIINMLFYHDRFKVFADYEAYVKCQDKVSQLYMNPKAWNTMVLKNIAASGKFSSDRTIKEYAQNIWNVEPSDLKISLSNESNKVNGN
Nature of the assay: Measurement of liver glycogen phosphorylase activity (enzyme inhibitory activity against HLGPa). In kind it is biochemical. The conditions noted are these: Sf9 cell lysate expressing recombinant enzyme; reverse reaction (glycogen synthesis from G1-P), phosphate by malachite green, 60 min room temperature. The method, boiled down:
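Activity was run in the reverse, glycogen-synthesis direction, using Sf9 lysate expressing recombinant human liver glycogen phosphorylase (enzyme solution 80 μg/mL protein, pH 7.0). Substrate solution was Tris pH 7.2 with 1.25 mM glucose-1-phosphate, 2.5 mg/ml glycogen and 7.5 mM glucose, reacted 60 min at room temperature. Released phosphate was measured by malachite green A650, with % inhibition taken against DMSO control and no-enzyme blank.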
Turning to `Nc1ccc(Cl)cc1C(=O)NNC(=O)c1cc2cc(Cl)ccc2[nH]1` [Example 1-57, 2-amino-5-chlorobenzoic acid 2-(5-chloro-1H-indole-2-carbonyl)hydrazide], the pIC50 is 7.52. As for `O=C(NNC(=O)c1cc2cc(Cl)ccc2[nH]1)c1ccc(-c2nnn[nH]2)cc1` [Example 1-59, 4-(1H-tetrazol-5-yl)benzoic acid 2-(5-chloro-1H-indole-2-carbonyl)hydrazide], the pIC50 was less than 7.00.

`O=C(NN1C(=O)CN(c2ccc(F)cc2)C1=O)c1cc2cc(Cl)ccc2[nH]1` [Example 4-13, 5-chloro-1H-indole-2-carboxylic acid (2,4-dioxo-1-(4-fluorophenyl)imidazolidin-3-yl)amide]: the pIC50 was less than 7.00. As for `Cc1ccc2[nH]c(C(=O)NNC(=O)c3ccccc3)cc2c1` [Example 1-33, benzoic acid 2-(5-methyl-1H-indole-2-carbonyl)hydrazide], the pIC50 was 7.07.

Turning to `O=C(NN1C(=O)CCN(c2ccc(F)cc2)C1=O)c1cc2cc(Cl)ccc2[nH]1` [Example 3-5, 5-chloro-1H-indole-2-carboxylic acid (1-(4-fluorophenyl)-2,4-dioxoperhydropyrimidin-3-yl)amide], the pIC50 was 6.72. The result for `O=C(NNC(=O)C1CCCCC1)c1cc2cc(F)ccc2[nH]1` [Example 1-10, cyclohexanecarboxylic acid 2-(5-fluoro-1H-indole-2-carbonyl)hydrazide] reads 6.70; that for `Cc1ccc2[nH]c(C(=O)NNC(=O)c3ccc(F)cc3N)cc2c1` [Example 1-63, 2-amino-4-fluorobenzoic acid 2-(5-methyl-1H-indole-2-carbonyl)hydrazide], 7.55; that for `O=C(NNC(=O)c1cc2cc(Cl)ccc2[nH]1)c1cccc(F)c1` [Example 1-28, 3-fluorobenzoic acid 2-(5-chloro-1H-indole-2-carbonyl)hydrazide], 7.31.

For `O=C(NNC(=O)c1cccc(F)c1F)c1cc2cc(Cl)ccc2[nH]1` [Example 1-91, 2,3-difluorobenzoic acid 2-(5-chloro-1H-indole-2-carbonyl)hydrazide], the pIC50 was 7.25.

On to `Cn1c(=O)n(NC(=O)c2cc3cc(Cl)ccc3[nH]2)c(=O)c2ccccc21` [Example 2-31, 5-chloro-1H-indole-2-carboxylic acid (1,2,3,4-tetrahydro-1-methyl-2,4-dioxoquinazolin-3-yl)amide], for which the pIC50 was 7.59.

Take `O=C(NNC(=O)c1cc2cc(Cl)ccc2[nH]1)Nc1cccc(Cl)c1` [Example 5-10, 5-chloro-1H-indole-2-carboxylic acid 2-((3-chloroanilino)carbonyl)hydrazide]: the pIC50 is less than 7.00. The result for `COc1ccc2[nH]c(=O)n(NC(=O)c3cc4cc(C)ccc4[nH]3)c(=O)c2c1` [Example 2-27, 5-methyl-1H-indole-2-carboxylic acid (1,2,3,4-tetrahydro-6-methoxy-2,4-dioxoquinazolin-3-yl)amide] reads 6.52. For `Cc1nc(C(=O)NNC(=O)c2cc3cc(Cl)ccc3[nH]2)c(N)s1` [Example 1-143, 5-amino-2-methylthiazole-4-carboxylic acid 2-(5-chloro-1H-indole-2-carbonyl)hydrazide], the pIC50 was 6.92. The result for `O=C(NNC(=O)c1cc2sccc2[nH]1)c1cc2cc(Cl)ccc2[nH]1` [Example 1-108, 4H-thieno[3,2-b]pyrrole-5-carboxylic acid 2-(5-chloro-1H-indole-2-carbonyl)hydrazide] reads 7.25; that for `COc1cccc(C(=O)NNC(=O)c2cc3cc(Cl)ccc3[nH]2)c1` [Example 1-16, 3-methoxybenzoic acid 2-(5-chloro-1H-indole-2-carbonyl)hydrazide], 7.14; that for `Cc1ccc(C(=N)NNC(=O)c2cc3cc(Cl)ccc3[nH]2)cc1` [Example 1-129, 5-chloro-1H-indole-2-carboxylic acid 2-(imino-(p-tolyl)-methyl)hydrazide], 7.23. The result for `Cc1ccc2[nH]c(C(=O)NNC(=O)c3cccn3C)cc2c1` [Example 1-106, 1-methyl-1H-pyrrole-2-carboxylic acid 2-(5-methyl-1H-indole-2-carbonyl)hydrazide] reads 7.11. Take `COC(=O)Cn1c(=O)n(NC(=O)c2cc3cc(Cl)ccc3[nH]2)c(=O)c2ccccc21` [Example 2-22, 2-(3-((5-chloro-1H-indole-2-carbonyl)amino)-1,2,3,4-tetrahydro-2,4-dioxoquinazolin-1-yl)acetic acid methyl ester]: the pIC50 was 7.51. The result for `O=C(NN1C(=O)CCN(c2ccc(Cl)cc2)C1=O)c1cc2cc(Cl)ccc2[nH]1` [Example 3-14, 5-chloro-1H-indole-2-carboxylic acid (1-(4-chlorophenyl)-2,4-dioxoperhydropyrimidin-3-yl)amide] reads 6.92; that for `O=C(NNC(=O)c1cc2cc(Cl)ccc2[nH]1)Nc1ccccc1Cl` [Example 5-9, 5-chloro-1H-indole-2-carboxylic acid 2-((2-chloroanilino)carbonyl)hydrazide], less than 7.00; that for `O=C(NNC(=O)c1cc2cc(Cl)ccc2[nH]1)c1ccccc1` [Example 1, benzoic acid 2-(5-chloro-1H-indole-2-carbonyl)hydrazide], 7.42. The result for `Cc1ccc2[nH]c(C(=O)NNC(=O)c3cc(F)c(F)cc3N)cc2c1` [Example 1-67, 2-Amino-4,5-difluorobenzoic acid 2-(5-methyl-1H-indole-2-carbonyl)hydrazide] reads 7.27; that for `O=C(NNC(=O)c1cc2cc(Cl)ccc2[nH]1)c1cc(F)c(F)c(F)c1` [Example 1-93, 3,4,5-trifluorobenzoic acid 2-(5-chloro-1H-indole-2-carbonyl)hydrazide], 6.57; that for `O=C(NNC(=O)c1ccc(Cl)nc1Cl)c1cc2cc(Cl)ccc2[nH]1` [Example 1-79, 2,6-dichloronicotinic acid 2-(5-chloro-1H-indole-2-carbonyl)hydrazide], 7.08. Turning to `COc1ccccc1C(=O)NNC(=O)c1cc2cc(Cl)ccc2[nH]1` [Example 1-15, 2-methoxybenzoic acid 2-(5-chloro-1H-indole-2-carbonyl)hydrazide], the pIC50 was 6.92. The result for `Cc1ccc2[nH]c(C(=O)Nn3c(=O)[nH]c4ccc(O)cc4c3=O)cc2c1` [Example 2-28, 5-methyl-1H-indole-2-carboxylic acid (1,2,3,4-tetrahydro-6-hydroxy-2,4-dioxoquinazolin-3-yl)amide] reads 7.25; that for `Cc1cccc(N)c1C(=O)NNC(=O)c1cc2cc(Cl)ccc2[nH]1` [Example 1-98, 2-amino-6-methylbenzoic acid 2-(5-chloro-1H-indole-2-carbonyl)hydrazide], 7.06; that for `O=C(NN1C(=O)NC(c2ccccc2F)C1=O)c1cc2cc(Cl)ccc2[nH]1` (centres unmarked) [Example 4-14, 5-chloro-1H-indole-2-carboxylic acid (2,5-dioxo-4-(2-fluorophenyl)imidazolidin-1-yl)amide], 6.96. The result for `O=C(NNC(=O)c1cc2cc(Cl)ccc2[nH]1)c1cn[nH]c1` [Example 1-104, 1H-pyrazole-4-carboxylic acid 2-(5-chloro-1H-indole-2-carbonyl)hydrazide] reads 7.68.

As a reminder, the pIC50 is −log10 of the IC50, conventionally taken in molar units.

The record behind these values is patent US20050054696A1, “Indole compounds and medicinal use thereof” (priority 2001, published 2005).
